In patent US12662489B2 (Sitryx Therapeutics Limited, priority 2023, dated 2026):

Experiments:
[1] = target: T1, MTHFD1 recombinant human enzyme (Homo sapiens, UniProt P11586); test: MTHFD1 inhibition assay (NAD(P)H-Glo luminescence); details: MTHFD1 IC50, recombinant human enzyme 200 nM, NADP, band
T1 sequence (P11586 2-291 limits assumed): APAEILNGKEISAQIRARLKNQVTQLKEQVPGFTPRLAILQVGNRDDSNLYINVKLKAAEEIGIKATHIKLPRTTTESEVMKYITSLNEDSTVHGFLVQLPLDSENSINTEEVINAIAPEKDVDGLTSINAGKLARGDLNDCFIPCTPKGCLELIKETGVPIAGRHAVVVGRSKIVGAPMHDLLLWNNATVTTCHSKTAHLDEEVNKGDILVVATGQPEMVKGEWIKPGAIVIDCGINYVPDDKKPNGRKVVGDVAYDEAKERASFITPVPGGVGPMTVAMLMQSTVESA

[2] = target: T2, MTHFD2 recombinant human enzyme (Homo sapiens, UniProt P13995); test: MTHFD2 inhibition assay (NAD(P)H-Glo luminescence); details: for MTHFD1/MTHFD2 IC50 ratio: selectivity of MTHFD2 inhibition over MTHFD1, band
T2 sequence (P13995 36-350): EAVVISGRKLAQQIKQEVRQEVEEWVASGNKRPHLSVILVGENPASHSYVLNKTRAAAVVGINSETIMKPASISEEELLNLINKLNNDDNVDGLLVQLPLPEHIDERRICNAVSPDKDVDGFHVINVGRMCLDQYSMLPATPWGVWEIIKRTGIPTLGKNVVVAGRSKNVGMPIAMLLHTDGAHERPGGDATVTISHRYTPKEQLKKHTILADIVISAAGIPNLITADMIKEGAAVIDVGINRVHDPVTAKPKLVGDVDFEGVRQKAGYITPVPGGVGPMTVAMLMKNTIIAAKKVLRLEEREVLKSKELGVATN

SMILES | IC50 [1] | IC50 [2] | MTHFD1/MTHFD2 IC50 ratio [2]
COC[C@H]1CN(c2cc(C)c3c4c(c(=O)oc3c2C)CN(C(=O)c2cc(OC)c(C(=O)NS(=O)(=O)N(C)C)c(N3CCCC3)c2)CC4)CCN1C [Example 119, (R)-N-(N,N-dimethylsulfamoyl)-2-methoxy-4-(8-(3-(methoxymethyl)-4-methylpiperazin-1-yl)-7,10-dimethyl-5-oxo-1,3,4,5-tetrahydro-2H-chromeno[3,4-c]pyridine-3-carbonyl)-6-(pyrrolidin-1-yl)benzamide] | 100 to 1000 nM | 10 to 100 nM | G (^ 3 to 9.0)
COC[C@H]1CN(c2cc(C)c3c4c(c(=O)oc3c2C)CN(C(=O)c2ccc(C(=O)NS(=O)(=O)N(C)C)c(N3CCCC5(CC5)C3)c2)CC4)CCN1C [Example 120, (R)-N-(N,N-dimethylsulfamoyl)-4-(8-(3-(methoxymethyl)-4-methylpiperazin-1-yl)-7,10-dimethyl-5-oxo-1,3,4,5-tetrahydro-2H-chromeno[3,4-c]pyridine-3-carbonyl)-2-(5-azaspiro[2.5]octan-5-yl)benzamide] | 100 to 1000 nM | 10 to 100 nM | F (<3)
COC[C@H]1CN(c2cc(C)c3c4c(c(=O)oc3c2C)CN(C(=O)c2ccc(C(=O)NS(=O)(=O)N3CCCC3)c(N3C5CCC3CC5)c2)CC4)CCN1C [Example 121, (R)-2-(7-azabicyclo[2.2.1]heptan-7-yl)-4-(8-(3-(methoxymethyl)-4-methylpiperazin-1-yl)-7,10-dimethyl-5-oxo-1,3,4,5-tetrahydro-2H-chromeno[3,4-c]pyridine-3-carbonyl)-N-(pyrrolidin-1-ylsulfonyl)benzamide] | 1 to 10 nM | 10 to 100 nM | F (<3)
COC[C@H]1CN(c2cc(C)c3c4c(c(=O)oc3c2C)CN(C(=O)c2ccc(C(=O)NS(=O)(=O)N3CCCC3)c(N3CCC[C@@H]3C)c2)CC4)CCN1C [Example 122, 4-(8-((R)-3-(methoxymethyl)-4-methylpiperazin-1-yl)-7,10-dimethyl-5-oxo-1,3,4,5-tetrahydro-2H-chromeno[3,4-c]pyridine-3-carbonyl)-2-((S)-2-methylpyrrolidin-1-yl)-N-(pyrrolidin-1-ylsulfonyl)benzamide] | 10 to 100 nM | 10 to 100 nM | F (<3)
COC[C@H]1CN(c2cc(C)c3c4c(c(=O)oc3c2C)CN(C(=O)c2ccc(C(=O)NS(=O)(=O)C3(C)CC3)c(N3CCC[C@H]3C)c2)CC4)CCN1C [Example 123, 4-(8-((R)-3-(methoxymethyl)-4-methylpiperazin-1-yl)-7,10-dimethyl-5-oxo-1,3,4,5-tetrahydro-2H-chromeno[3,4-c]pyridine-3-carbonyl)-N-((1-methylcyclopropyl)sulfonyl)-2-((R)-2-methylpyrrolidin-1-yl)benzamide] | 100 to 1000 nM | 10 to 100 nM | F (<3)
COC[C@H]1CN(c2cc(C)c3c4c(c(=O)oc3c2C)CN(C(=O)c2ccc(C(=O)NS(=O)(=O)N3CCCC3)c(N3CCC[C@H]3C)c2)CC4)CCN1C [Example 124, 4-(8-((R)-3-(methoxymethyl)-4-methylpiperazin-1-yl)-7,10-dimethyl-5-oxo-1,3,4,5-tetrahydro-2H-chromeno[3,4-c]pyridine-3-carbonyl)-2-((R)-2-methylpyrrolidin-1-yl)-N-(pyrrolidin-1-ylsulfonyl)benzamide] | 100 to 1000 nM | 100 to 1000 nM | F (<3)
COC[C@H]1CN(c2cc(C)c3c4c(c(=O)oc3c2C)CN(C(=O)c2ccc(C(=O)NS(=O)(=O)C3(C)CC3)c(N3CCC[C@@H]3C)c2)CC4)CCN1C [Example 125, 4-(8-((R)-3-(methoxymethyl)-4-methylpiperazin-1-yl)-7,10-dimethyl-5-oxo-1,3,4,5-tetrahydro-2H-chromeno[3,4-c]pyridine-3-carbonyl)-N-((1-methylcyclopropyl)sulfonyl)-2-((S)-2-methylpyrrolidin-1-yl)benzamide] | 1 to 10 nM | 10 to 100 nM | F (<3)
COC[C@H]1CN(c2cc(C)c3c4c(c(=O)oc3c2C)CN(C(=O)c2ccc(C(=O)NS(=O)(=O)N3CCCC3)c(N3CC5CC5C3)c2)CC4)CCN1C (stereo partly drawn) [Example 126, 2-(3-azabicyclo[3.1.0]hexan-3-yl)-4-(8-((R)-3-(methoxymethyl)-4-methylpiperazin-1-yl)-7,10-dimethyl-5-oxo-1,3,4,5-tetrahydro-2H-chromeno[3,4-c]pyridine-3-carbonyl)-N-(pyrrolidin-1-ylsulfonyl)benzamide] | 10 to 100 nM | 10 to 100 nM | F (<3)
COC[C@H]1CN(c2cc(C)c3c4c(c(=O)oc3c2C)CN(C(=O)c2cc(OC3CCCC3)c(C(=O)NS(=O)(=O)N(C)C)c(N3CCCC3)c2)CC4)CCN1C [Example 127, (R)-2-(cyclopentyloxy)-N-(N,N-dimethylsulfamoyl)-4-(8-(3-(methoxymethyl)-4-methylpiperazin-1-yl)-7,10-dimethyl-5-oxo-1,3,4,5-tetrahydro-2H-chromeno[3,4-c]pyridine-3-carbonyl)-6-(pyrrolidin-1-yl)benzamide] | 100 to 1000 nM | 10 to 100 nM | H (>9.0 to 30)
COC[C@@H]1CN(c2cc(C)c3c4c(c(=O)oc3c2C)CN(C(=O)c2ccc(C(=O)NS(=O)(=O)N3CCCC3)c(OC3CCC3)c2)CC4)CCN1C [Example 131, (S)-2-cyclobutoxy-4-(8-(3-(methoxymethyl)-4-methylpiperazin-1-yl)-7,10-dimethyl-5-oxo-1,3,4,5-tetrahydro-2H-chromeno[3,4-c]pyridine-3-carbonyl)-N-(pyrrolidin-1-ylsulfonyl)benzamide] | 100 to 1000 nM | 10 to 100 nM | G (^ 3 to 9.0)
COC[C@H]1CN(c2cc(C)c3c4c(c(=O)oc3c2C)CN(C(=O)c2cc(OC3CCC3)c(C(=O)NS(=O)(=O)N3CCCC3)c(C(F)(F)F)c2)CC4)CCN1C [Example 132, (R)-2-cyclobutoxy-4-(8-(3-(methoxymethyl)-4-methylpiperazin-1-yl)-7,10-dimethyl-5-oxo-1,3,4,5-tetrahydro-2H-chromeno[3,4-c]pyridine-3-carbonyl)-N-(pyrrolidin-1-ylsulfonyl)-6-(trifluoromethyl)benzamide] | 100 to 1000 nM | 10 to 100 nM | H (>9.0 to 30)
COC[C@H]1CN(c2ccc3c4c(c(=O)oc3c2C)CN(C(=O)c2cc(OC3CCC3)c(C(=O)NS(=O)(=O)N3CCCC3)c(C(F)(F)F)c2)CC4)CCN1C [Example 133, (R)-2-cyclobutoxy-4-(8-(3-(methoxymethyl)-4-methylpiperazin-1-yl)-7-methyl-5-oxo-1,3,4,5-tetrahydro-2H-chromeno[3,4-c]pyridine-3-carbonyl)-N-(pyrrolidin-1-ylsulfonyl)-6-(trifluoromethyl)benzamide] | 100 to 1000 nM | 100 to 1000 nM | G (^ 3 to 9.0)
COC[C@H]1CN(c2cc(C)c3c4c(c(=O)oc3c2C)CN(C(=O)c2ccc(C(=O)NS(=O)(=O)N(C)C)c(OC)c2F)CC4)CCN1C [Example 134, (R)-N-(N,N-dimethylsulfamoyl)-3-fluoro-2-methoxy-4-(8-(3-(methoxymethyl)-4-methylpiperazin-1-yl)-7,10-dimethyl-5-oxo-1,3,4,5-tetrahydro-2H-chromeno[3,4-c]pyridine-3-carbonyl)benzamide] | 10 to 100 nM | 10 to 100 nM | G (^ 3 to 9.0)
COC[C@H]1CN(c2ccc3c4c(c(=O)oc3c2C)CN(C(=O)c2ccc(C(=O)NS(=O)(=O)C3(C)CC3)c(N(C)C)c2F)CC4)CCN1C [Example 137, (R)-2-(dimethylamino)-3-fluoro-4-(8-(3-(methoxymethyl)-4-methylpiperazin-1-yl)-7-methyl-5-oxo-1,3,4,5-tetrahydro-2H-chromeno[3,4-c]pyridine-3-carbonyl)-N-((1-methylcyclopropyl)sulfonyl)benzamide] | 100 to 1000 nM | 10 to 100 nM | G (^ 3 to 9.0)
COC[C@H]1CN(c2cc(C)c3c4c(c(=O)oc3c2C)CN(C(=O)c2ccc(C(=O)NS(=O)(=O)N3CCCC3)c(N(C)C)c2F)CC4)CCN1C [Example 138, (R)-2-(dimethylamino)-3-fluoro-4-(8-(3-(methoxymethyl)-4-methylpiperazin-1-yl)-7,10-dimethyl-5-oxo-1,3,4,5-tetrahydro-2H-chromeno[3,4-c]pyridine-3-carbonyl)-N-(pyrrolidin-1-ylsulfonyl)benzamide] | 100 to 1000 nM | 10 to 100 nM | H (>9.0 to 30)
COC[C@H]1CN(c2ccc3c4c(c(=O)oc3c2C)CN(C(=O)c2ccc(C(=O)NS(=O)(=O)N3CCCC3)c(N(C)C)c2F)CC4)CCN1C [Example 139, (R)-2-(dimethylamino)-3-fluoro-4-(8-(3-(methoxymethyl)-4-methylpiperazin-1-yl)-7-methyl-5-oxo-1,3,4,5-tetrahydro-2H-chromeno[3,4-c]pyridine-3-carbonyl)-N-(pyrrolidin-1-ylsulfonyl)benzamide] | 100 to 1000 nM | 100 to 1000 nM | G (^ 3 to 9.0)
